Measured values: US10238747B2 (priority 2010, dated 2019)
Where “and” joins values, the source holds several entries; their conditions need not be identical. Equal entries are not always repeated.

Tests used:
CD4 = CD4 (Homo sapiens, UniProt P01730); conditions: T cell co-stimulator molecule; cited from earlier work
[1] = 2-8° C.
BALB/c and C57BL6 mice = conditions: mouse, in vivo
CIA model of RA = conditions: mouse, in vivo; cited from earlier work
Dendritic Cells = assay type: cell-based, Balb/c mice

(amino)-DGQEEKAGVVSTGLIGGG-(amide) (H-DGQEEKAGVVSTGLIGGG-NH2) [CEL-1000]
binding to CD4 (CD4): shown to bind to CD4
stability of formulation (time extremely stable) [1]: over 2 years

DLLKNGERIEKVEGGGGLFGAIAGFIEGG [J-HA2 core 1]
primary response: antibody production (day 24 or 38) or cytokine responses (day 3, 10 and 24) (BALB/c and C57BL6 mice): very little response

DLLKNGERIEKVEGGGLKSTQNAIDEITNKVN [J-HA2 core 2]
primary response: antibody production (day 24 or 38) or cytokine responses (day 3, 10 and 24) (BALB/c and C57BL6 mice): very little response

DLLKNGERIEKVEGGGNDATYQRTRALVRTG [J-NP]
serum IFN-y, secondary response (FIG. 2) (BALB/c and C57BL6 mice): sustained levels
serum IFN-γ response, normalized to adjuvant control (FIG. 1) (BALB/c and C57BL6 mice): higher amounts
serum IL-10, secondary response (FIG. 2) (BALB/c and C57BL6 mice): sustained levels
serum IL-12 p40p70, secondary response (FIG. 2) (BALB/c and C57BL6 mice): sustained levels
serum IL-12p40 response, normalized to adjuvant control (FIG. 1) (BALB/c and C57BL6 mice): higher for C57BL6 mice
serum IL-12p70, secondary response (FIG. 2) (BALB/c and C57BL6 mice): sustained levels
serum MCP-1 response, normalized to adjuvant control (FIG. 1) (BALB/c and C57BL6 mice): higher amounts

DLLKNGERIEKVEGGGSLLTEVETPIRNEWGCRCNDSSD [J-M2e]
serum IFN-y, secondary response (FIG. 2) (BALB/c and C57BL6 mice): increase
serum IFN-γ response, normalized to adjuvant control (FIG. 1) (BALB/c and C57BL6 mice): higher amounts
serum IL-10, secondary response (FIG. 2) (BALB/c and C57BL6 mice): increase
serum IL-12 p40p70, secondary response (FIG. 2) (BALB/c and C57BL6 mice): increase
serum IL-12p40 response, normalized to adjuvant control (FIG. 1) (BALB/c and C57BL6 mice): higher for C57BL6 mice
serum IL-12p70, secondary response (FIG. 2) (BALB/c and C57BL6 mice): increase
serum MCP-1 response, normalized to adjuvant control (FIG. 1) (BALB/c and C57BL6 mice): higher amounts

DLLKNGERIEKVEGGGTGGKPGIAGFKGEQGPKGEP [CEL-2000]
disease suppression (CIA model of RA): suppress disease over a 90 day period
efficacy compared with Enbrel (CIA model of RA): more effective than Enbrel
safety and tolerability (CIA model of RA): safe and well-tolerated
serum IL-1 change (CIA model of RA): reduced
serum IL-10 change (CIA model of RA): increased
serum IL-12p40 change (CIA model of RA): decrease
serum IL-12p70 change (CIA model of RA): increased
serum MCP-1 change (CIA model of RA): reduced
serum TNF-α change (CIA model of RA): reduced
IL-12p70 Conc., R&D Systems (IL-12p70), Avg (Dendritic Cells): 67.9 pg/mL and 35.4 pg/mL and 58.2 pg/mL

DLLKNGERIEKVEGGGYSVHQRIDVKDTKEALEKIEEEQNKSKKKA [JH]
TNF-a Conc., R&D Systems TNF-a, Avg (Dendritic Cells): 905.7 pg/mL and 685.0 pg/mL and 830.9 pg/mL
TNF-a Conc., RayBio TNF-a, Avg (Dendritic Cells): 29.6 pg/mL

lipopolysaccharide [LPS]
IL-12p70 Conc., R&D Systems (IL-12p70), Avg (Dendritic Cells): 57.0 pg/mL and 78.5 pg/mL and 62.5 pg/mL
TNF-a Conc., R&D Systems TNF-a, Avg (Dendritic Cells): 5229.9 pg/mL and 3313.2 pg/mL and 3083.0 pg/mL
TNF-a Conc., RayBio TNF-a, Avg (Dendritic Cells): 3206.0 pg/mL and 2142.3 pg/mL and 2028.6 pg/mL
